EP0628545A1, “13,14-Dihydro-PGF2BETA and its isopropyl ester” (ONO PHARMACEUTICAL CO., LTD., priority 1993, dated 1994)

How the values were obtained:
intraocular pressure = assay: Reducing effect of intraocular pressure after instillation into the rabbit eye (Experiment 1); type: in vivo, Japanese White rabbits; conditions: for Δ IOP, Reducing Effects of Intraocular Pressure: 50 µl instilled into left eye, vehicle-corrected, average of three samples; for Change in I.O.P.: area over 0 mmHg minus area under 0 mmHg of the IOP-time graph, 0-6 hr, minus = reduction
Description: For example, in a standard laboratory test the following data shown in Table 1 and 2 and in the accompanying Figure 1 were obtained. Average of the value of three samples are shown as each data. In the Figure reduction in intraocular pressure is plotted against time after administration for the compound of the invention and three comparison compounds.
Male Japanese White rabbits weighing about 3.0 kg were lightly held and the intraocular pressure was measured by Applanation Pneumatonograph after corneal anesthesia with instillation of 0.4% oxybuprocaine hydrochloride solution.
A 0.1% solution of a test compound was dissolved in vehicle which contains 2.5% conc. glycerol and 2.0% Polysorbate 80 in sterile purified water. The test solution at volume of 50 µl was instilled into left eye of each rabbit and the right eye remained untreated. As a control, the vehicle was instilled into left eye in a control group. Δ IOP (mmHg), which is an index of intraocular pressure-reducing effect, were calculated using below formula. IOP = (IOPt - IOP₀) - (IOPvt - IOPv0 ) [formula] IOPt : IOP at t hr after instillation of a test solution IOPvt : IOP at t hr after instillation of vehicle IOP₀ : IOP just before instillation of a test solution IOPv0 : IOP just before instillation of vehicle
Taking into consideration the continuous time of occurrence of the reduction effect and the intensity of the effect, the superiority of the compound of the present invention to the compared compound is clear. On the graph 1, the squares i.e. reducing effect of intraocular pressure, were calculated: That is, squares under 0 mmHg put minus and squares over 0 mmHg put plus, and the total squares are calculated and the values are shown in the Table 2.
On the graph of the intraocular pressure in course of time, area of the square (mmHg x hr) in elevation i.e. square over 0 mmHg and area of the square (mmHg x hr) in the reduction i.e. square under 0 mmHg were calculated and from the value of the former was subtracted the one of the latter. The minus-resulted value means reduction of intraocular pressure and the plus-resulted value means elevation of intraocular pressure.

[1] = Detection of compound and metabolite in eye tissue homogenates by liquid chromatography-mass spectrum after eye drop administration (Experiment 2); type: in vivo, Japanese White rabbits; conditions: 1 Hr after the last administration; for detection in the homogenates of aqueous humor, cornea or iris/ciliary body: eye drop solution of Example 1 three times every 5 mins in saccus conjunctivae
Description: Japanese White rabbits weighing 3.0 kg were used. Eye drop solution of Example 1 was administered three times every 5 mins in saccus conjunctivae. 1 Hr after the last administration, aqueous humor, cornea and iris/ciliary body were collected and homogenized respectively. The homogenates were measured by liquid chromatography-Mass spectrum.

[2] = 0 hr after administration (baseline), 0.1% solution
[3] = 1 hr after administration, 0.1% solution
[4] = 2 hr after administration, 0.1% solution
[5] = 4 hr after administration, 0.1% solution
[6] = 6 hr after administration, 0.1% solution

SMILES	continued elevation of the intraocular pressure (intraocular pressure; 0.1% solution)	initial elevation of the intraocular pressure (intraocular pressure; 0.1% solution)	bulbar and palpebral conjunctival hyperemia (intraocular pressure; after instillation of 0.1% solution)	detection in the homogenates of aqueous humor, cornea or iris/ciliary body [1]	Δ IOP, Reducing Effects of Intraocular Pressure (intraocular pressure; [2]) [mm Hg]	time after administration at which the reducing effect appeared (intraocular pressure; 0.1% solution) [h]	Δ IOP, Reducing Effects of Intraocular Pressure (intraocular pressure; [3]) [mm Hg]	Δ IOP, Reducing Effects of Intraocular Pressure (intraocular pressure; [4]) [mm Hg]	Δ IOP, Reducing Effects of Intraocular Pressure (intraocular pressure; [5]) [mm Hg]	Δ IOP, Reducing Effects of Intraocular Pressure (intraocular pressure; [6]) [mm Hg]	Change in I.O.P. (intraocular pressure; 0.1% solution) [mmHg x hr]	maximum reduction of IOP (intraocular pressure; 0.1% solution) [mmHg]	activity (reduction of intraocular pressure) reached (intraocular pressure; at 2 hrs after administration, same level maintained till 6 hrs) [mmHg]	hydrolysis on cornea ([1]; eye drop solution of Example 1)
CCCCC[C@H](O)/C=C/[C@@H]1[C@@H](C/C=C\CCCC(=O)OC(C)C)[C@@H](O)C[C@@H]1O [Compared compound 1, 11-epi-PGF2α isopropyl ester]	continuous elevation till 6 hrs	showed initial elevation	–	–	0	> 6	3.5	1.5	1.5	0.2	8.95	–	–	–
CCCCC[C@H](O)/C=C/[C@@H]1[C@@H](C/C=C\CCCC(=O)OC(C)C)[C@@H](O)C[C@H]1O [Compared compound 2, PGF2α isopropyl ester]	–	extremely strong initial elevation	–	–	0	~4	13.7	3.7	-1	-5.8	11.36	–	–	–

Second part, led by results:

continued elevation of the intraocular pressure (intraocular pressure; 0.1% solution)	initial elevation of the intraocular pressure (intraocular pressure; 0.1% solution)	bulbar and palpebral conjunctival hyperemia (intraocular pressure; after instillation of 0.1% solution)	detection in the homogenates of aqueous humor, cornea or iris/ciliary body [1]	SMILES	Δ IOP, Reducing Effects of Intraocular Pressure (intraocular pressure; [2]) [mm Hg]	time after administration at which the reducing effect appeared (intraocular pressure; 0.1% solution) [h]	Δ IOP, Reducing Effects of Intraocular Pressure (intraocular pressure; [3]) [mm Hg]	Δ IOP, Reducing Effects of Intraocular Pressure (intraocular pressure; [4]) [mm Hg]	Δ IOP, Reducing Effects of Intraocular Pressure (intraocular pressure; [5]) [mm Hg]	Δ IOP, Reducing Effects of Intraocular Pressure (intraocular pressure; [6]) [mm Hg]	Change in I.O.P. (intraocular pressure; 0.1% solution) [mmHg x hr]	maximum reduction of IOP (intraocular pressure; 0.1% solution) [mmHg]	activity (reduction of intraocular pressure) reached (intraocular pressure; at 2 hrs after administration, same level maintained till 6 hrs) [mmHg]	hydrolysis on cornea ([1]; eye drop solution of Example 1)
–	showed initial elevation	–	–	CCCCC[C@H](O)CC[C@@H]1[C@@H](C/C=C\CCCC(=O)OC)[C@@H](O)C[C@H]1O [Compared compound 3, 13,14-dihydro-PGF2α methyl ester]	0	~4	3.3	-1.3	-0.7	-4.3	-4.35	–	–	–
–	did not show initial elevation	not observed	not detected	CCCCC[C@H](O)CC[C@@H]1[C@@H](C/C=C\CCCC(=O)OC(C)C)[C@H](O)C[C@H]1O [Example 1, 13,14-dihydro-PGF2β isopropyl ester]	0	1	-1.8	-5.5	-5.5	-5.3	-26.35	5.5	5.5	hydrolysed into the compound of Example 2
–	–	–	detected	CCCCC[C@H](O)CC[C@@H]1[C@@H](C/C=C\CCCC(=O)O)[C@H](O)C[C@H]1O [Example 2, 13,14-dihydro-prostaglandin F2β]	–	–	–	–	–	–	–	–	–	–
